Data: patent US10507248B2, “Hydrophobic core carrier compositions for delivery of therapeutic agents, methods of making and using the same” (PharmaIn Corporation, priority 2005, dated 2019)

Assays:
[1] = system: streptozotocin diabetic rats; assay: Treatment of streptozotocin diabetic rats for 4 weeks; type: in vivo, Sprague-Dawley rats
Experimental: FIG. 45. […] Prior to treatment the blood glucose levels taken every 2 days for 6 days prior to treatment are between 300-600 mg/dl. After randomization the average blood sugar level of each group are between 421 and 433 mg/dl. Rats were treated every 2 days subcutaneously. […] Non-fasting sugar levels taken every 2 days were added together to obtain area under the curve (AUC) for each animal to average out cyclical variability in each animal.
FIG. 46. This is a graph showing the average body weight of streptozotocin diabetic rats at the end of the 4 week treatment period (+/−standard deviation; n=4) that started at 13th day after diabetes induction with 60 mg/kg streptozotocin. The starting weights of all animals prior to streptozotocin treatment are within 240 to 260 grams.
FIG. 47. […] The islets were located and the number of BrDU positive nuclei in each islet was counted.
Briefly for this in vivo protocol, 12-week old male Sprague-Dawley (HSD) rats (Harlan, Indianapolis, Ind.) were housed at 23±1° C. in a 12:12-h light:dark cycle, and were given access to food and water ad libitium (diet LM-485, Teklad, Madison, Wis.). […] Non-fasting blood sugar levels were monitored daily from day 2 by tail-tip snip blood collection (5 ul) and blood sugar levels were measured using Glucometer (Ascensia Elite, Bayer Co. Mishawaka, Ind.) and test strips (Bayer Co. Mishawaka, Ind.). […]

[2] = in vivo; cited from earlier work
DPP-9 = DPP-9 (Homo sapiens, UniProt Q86TI2); details: concentrations approximating those from therapeutic doses; cited from earlier work
DPP-8 = DPP-8 (Homo sapiens, UniProt Q6V1X1); details: concentrations approximating those from therapeutic doses; cited from earlier work
[3] = native peptides; cited from earlier work

Chain of DPP-9 (Q86TI2 whole entry): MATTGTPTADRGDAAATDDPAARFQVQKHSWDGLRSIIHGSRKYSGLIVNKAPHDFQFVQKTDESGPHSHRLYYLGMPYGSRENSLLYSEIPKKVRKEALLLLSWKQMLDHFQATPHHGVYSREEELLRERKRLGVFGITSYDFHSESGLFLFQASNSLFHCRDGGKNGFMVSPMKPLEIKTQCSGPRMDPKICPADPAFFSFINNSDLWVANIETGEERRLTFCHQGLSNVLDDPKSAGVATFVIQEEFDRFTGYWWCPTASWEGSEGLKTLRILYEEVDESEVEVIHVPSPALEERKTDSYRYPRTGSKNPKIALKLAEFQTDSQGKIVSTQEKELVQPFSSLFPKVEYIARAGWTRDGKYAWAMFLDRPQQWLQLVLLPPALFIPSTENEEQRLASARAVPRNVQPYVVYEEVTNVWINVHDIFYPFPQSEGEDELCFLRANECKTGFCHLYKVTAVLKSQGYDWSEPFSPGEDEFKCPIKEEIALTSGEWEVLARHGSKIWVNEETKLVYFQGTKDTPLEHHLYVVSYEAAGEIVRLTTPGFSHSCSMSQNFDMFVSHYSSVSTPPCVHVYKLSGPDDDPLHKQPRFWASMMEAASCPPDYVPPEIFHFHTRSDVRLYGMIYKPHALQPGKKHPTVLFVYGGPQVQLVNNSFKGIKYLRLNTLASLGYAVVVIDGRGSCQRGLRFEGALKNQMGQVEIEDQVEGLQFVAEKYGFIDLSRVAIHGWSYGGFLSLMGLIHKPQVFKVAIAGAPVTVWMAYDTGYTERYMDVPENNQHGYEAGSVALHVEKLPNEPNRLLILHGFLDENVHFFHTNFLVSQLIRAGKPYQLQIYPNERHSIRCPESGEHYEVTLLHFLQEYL
Chain of DPP-8 (Q6V1X1 whole entry): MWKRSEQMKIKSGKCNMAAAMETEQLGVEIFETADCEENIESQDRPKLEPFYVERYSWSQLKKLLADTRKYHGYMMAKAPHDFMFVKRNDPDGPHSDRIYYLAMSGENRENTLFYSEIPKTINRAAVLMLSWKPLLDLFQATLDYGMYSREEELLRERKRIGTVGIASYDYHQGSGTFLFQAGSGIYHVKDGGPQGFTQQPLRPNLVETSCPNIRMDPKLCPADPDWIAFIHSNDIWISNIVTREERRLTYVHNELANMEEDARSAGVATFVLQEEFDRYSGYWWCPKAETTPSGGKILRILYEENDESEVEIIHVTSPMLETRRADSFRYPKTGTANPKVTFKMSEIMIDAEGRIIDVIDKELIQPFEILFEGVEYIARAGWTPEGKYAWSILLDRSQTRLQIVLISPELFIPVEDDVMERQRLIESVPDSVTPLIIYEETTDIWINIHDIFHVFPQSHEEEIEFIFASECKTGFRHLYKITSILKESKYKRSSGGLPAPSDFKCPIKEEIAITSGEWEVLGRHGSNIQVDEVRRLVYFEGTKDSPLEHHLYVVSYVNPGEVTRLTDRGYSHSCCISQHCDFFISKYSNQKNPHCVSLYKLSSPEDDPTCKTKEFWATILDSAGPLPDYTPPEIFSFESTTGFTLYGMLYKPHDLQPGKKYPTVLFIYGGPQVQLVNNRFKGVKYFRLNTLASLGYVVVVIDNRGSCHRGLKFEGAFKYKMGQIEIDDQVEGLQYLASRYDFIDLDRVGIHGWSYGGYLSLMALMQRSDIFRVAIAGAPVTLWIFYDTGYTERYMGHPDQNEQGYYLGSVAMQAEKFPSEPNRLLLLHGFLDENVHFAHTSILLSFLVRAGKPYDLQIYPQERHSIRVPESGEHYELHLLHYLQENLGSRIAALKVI

Compound: CC[C@H](C)[C@H](NC(=O)[C@H](Cc1ccccc1)NC(=O)[C@H](CCC(=O)O)NC(=O)[C@H](CCCCN)NC(=O)[C@H](C)NC(=O)[C@H](C)NC(=O)[C@H](CCC(N)=O)NC(=O)CNC(=O)[C@H](CCC(=O)O)NC(=O)[C@H](CC(C)C)NC(=O)[C@H](Cc1ccc(O)cc1)NC(=O)[C@H](CO)NC(=O)[C@H](CO)NC(=O)[C@@H](NC(=O)[C@H](CC(=O)O)NC(=O)[C@H](CO)NC(=O)[C@@H](NC(=O)[C@H](Cc1ccccc1)NC(=O)[C@@H](NC(=O)CNC(=O)[C@H](CCC(=O)O)NC(=O)[C@H](C)NC(=O)[C@@H](N)Cc1c[nH]cn1)[C@@H](C)O)[C@@H](C)O)C(C)C)C(=O)N[C@@H](C)C(=O)N[C@@H](Cc1c[nH]c2ccccc12)C(=O)N[C@@H](CC(C)C)C(=O)N[C@H](C(=O)N[C@@H](CCCCN)C(=O)NCC(=O)N[C@@H](CCCNC(=N)N)C(N)=O)C(C)C [GLP-1, GLP-1 (7-36 amide)]
- BrdU positive nuclei (cell divisions) in the islets ([1]; pancreas histology after 4 weeks, versus PBS or empty carrier): significantly more cell divisions
- body weight at the end of the 4 week treatment ([1]; s.c. every 2 days for 4 weeks, 20 ug GLP-1): greater variability in response

Compound: COc1ccc2[nH]c([S+]([O-])Cc3ncc(C)c(OC)c3C)nc2c1 (stereo not drawn) [Omeprazole]
- LD50 [2]: > 4000 mg/kg

Compound: N[C@@H](CC(=O)N1CCn2c(nnc2C(F)(F)F)C1)Cc1cc(F)c(F)cc1F [Sitagliptin, 7-[(3R)-3-amino-1-oxo-4-(2,4,5-trifluorophenyl)butyl]-5,6,7,8-tetrahydro-3-(trifluoromethyl)-1,2,4-triazolo[4,3-a]pyrazine phosphate (1:1) monohydrate]
- inhibition of DPP-9 activity in vitro (DPP-9): does not inhibit
- inhibition of DPP-8 activity in vitro (DPP-8): does not inhibit

Compound: native gastrin: native peptide hormone with short biological half-life
- biological half-life [3]: few minutes
